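Compound exposure: 48 hours, 5 concentrations, 96-well plates. Abbreviation: GI50, concentration required for 50% inhibition of growth. At the TGI there is no net growth.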
Columns and labels:
Assay in all cases: NCI-60 cell line screen, 48 h
SK-MEL-2 melanoma = test system: SK-MEL-2 melanoma
T-47D breast = test system: T-47D breast
HCT-116 colon = test system: HCT-116 colon
COLO 205 colon = test system: COLO 205 colon
ACHN renal = test system: ACHN renal
PC-3 prostate = test system: PC-3 prostate
OVCAR-4 ovarian = test system: OVCAR-4 ovarian
MALME-3M melanoma = test system: MALME-3M melanoma
CCRF-CEM leukemia = test system: CCRF-CEM leukemia
KM12 colon = test system: KM12 colon
K-562 leukemia = test system: K-562 leukemia
HCC-2998 colon = test system: HCC-2998 colon
SR leukemia = test system: SR leukemia
A549 NSCLC = test system: A549 NSCLC
MOLT-4 leukemia = test system: MOLT-4 leukemia
NCI-H226 lung = test system: NCI-H226 lung
SN12C renal = test system: SN12C renal
HL-60(TB) leukemia = test system: HL-60(TB) leukemia
SF-268 CNS = test system: SF-268 CNS
OVCAR-5 ovarian = test system: OVCAR-5 ovarian
TK-10 renal = test system: TK-10 renal
SK-MEL-28 melanoma = test system: SK-MEL-28 melanoma
HOP-62 NSCLC = test system: HOP-62 NSCLC
OVCAR-8 ovarian = test system: OVCAR-8 ovarian
MCF7 breast = test system: MCF7 breast
SK-MEL-5 melanoma = test system: SK-MEL-5 melanoma
RXF 393 renal = test system: RXF 393 renal
NCI-H460 lung = test system: NCI-H460 lung
MDA-MB-231 breast = test system: MDA-MB-231 breast

Structure (SMILES): COc1cc(NC(N)=NCCC(C)(C)c2ccc(C(F)(F)F)cc2)ncc1C#N
- GI50 (SK-MEL-2 melanoma): 1840 nM
- TGI (SK-MEL-2 melanoma): 3380 nM
- GI50 (T-47D breast): 1510 nM
- TGI (T-47D breast): 3500 nM
- GI50 (HCT-116 colon): 1510 nM
- TGI (HCT-116 colon): 2900 nM
- GI50 (COLO 205 colon): 1650 nM
- TGI (COLO 205 colon): 3210 nM
- GI50 (ACHN renal): 1650 nM
- TGI (ACHN renal): 3010 nM
- GI50 (PC-3 prostate): 1550 nM
- TGI (PC-3 prostate): 3170 nM
- GI50 (OVCAR-4 ovarian): 1820 nM
- TGI (OVCAR-4 ovarian): 4120 nM
- GI50 (MALME-3M melanoma): 1820 nM
- TGI (MALME-3M melanoma): 3470 nM
- GI50 (CCRF-CEM leukemia): 2060 nM
- TGI (CCRF-CEM leukemia): 4930 nM
- GI50 (KM12 colon): 1800 nM
- TGI (KM12 colon): 3380 nM
- GI50 (K-562 leukemia): 1420 nM
- TGI (K-562 leukemia): 5020 nM
- GI50 (HCC-2998 colon): 1890 nM
- TGI (HCC-2998 colon): 3340 nM
- GI50 (SR leukemia): 1700 nM
- TGI (SR leukemia): 4060 nM
- GI50 (A549 NSCLC): 1610 nM
- TGI (A549 NSCLC): 3060 nM
- GI50 (MOLT-4 leukemia): 1840 nM
- TGI (MOLT-4 leukemia): 5250 nM
- GI50 (NCI-H226 lung): 1600 nM
- TGI (NCI-H226 lung): 3360 nM
- GI50 (SN12C renal): 1470 nM
- TGI (SN12C renal): 2820 nM
- GI50 (HL-60(TB) leukemia): 278 nM
- TGI (HL-60(TB) leukemia): 868 nM
- GI50 (SF-268 CNS): 1970 nM
- TGI (SF-268 CNS): 4270 nM
- GI50 (OVCAR-5 ovarian): 1970 nM
- TGI (OVCAR-5 ovarian): 3760 nM
- GI50 (TK-10 renal): 1510 nM
- TGI (TK-10 renal): 2880 nM
- GI50 (SK-MEL-28 melanoma): 2010 nM
- TGI (SK-MEL-28 melanoma): 3520 nM
- GI50 (HOP-62 NSCLC): 1780 nM
- TGI (HOP-62 NSCLC): 3250 nM
- GI50 (OVCAR-8 ovarian): 1700 nM
- TGI (OVCAR-8 ovarian): 3180 nM
- GI50 (MCF7 breast): 1450 nM
- TGI (MCF7 breast): 2980 nM
- GI50 (SK-MEL-5 melanoma): 1580 nM
- TGI (SK-MEL-5 melanoma): 2940 nM
- GI50 (RXF 393 renal): 1790 nM
- TGI (RXF 393 renal): 3240 nM
- GI50 (NCI-H460 lung): 1830 nM
- TGI (NCI-H460 lung): 3550 nM
- GI50 (MDA-MB-231 breast): 1800 nM
- TGI (MDA-MB-231 breast): 3340 nM

— PubChem BioAssay (NCI)
